# What was measured:
# Assay type in all cases: in vivo
# [1] = tested on: barnyardgrass (Echinochloa crus-galli); assay: Test G Pre-Emergence Protocol; settings: Echinochloa crus-galli, pre-emergence, 312 h, evaluated after 13 days; for pest or weed control at 15.625 g/ha: 15.625 g ai/ha; for pest or weed control at 15.625 g/ha / pest or weed control at 250 g/ha: read-out: Barnyardgrass damage rating (100=total damage to plant; 0=no damage to plant); for pest or weed control at 62.5 g/ha: 62.5 g ai/ha, 100=total damage to plant, 0=no damage to plant, read-out: Barnyardgrass damage rating; for pest or weed control at 250 g/ha: 250 g ai/ha
# How it was run: (§1)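 Spraying took place one day after sowing, at 15.625, 62.5 or 250 g/ha, using an acetone/water (50:50) spray solution containing 0.5% Tween 20. Plants were kept under glasshouse conditions (24/16 °C, 14 h light, 65% humidity, watered twice daily), and injury was rated 0–100 at day 13.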
# corn (Zea mays) [2] = assay: Test G Pre-Emergence Protocol; settings: evaluated after 13 days; for plant injury at 62.5 g/ha: 62.5 g ai/ha, 100=total damage to plant, 0=no damage to plant, read-out: Corn damage rating; for plant injury at 250 g/ha: 250 g ai/ha
# How it was run: as §1
# [3] = tested on: giant foxtail (Setaria faberi); assay: Test G Pre-Emergence Protocol; settings: Setaria faberi, pre-emergence, 312 h, evaluated after 13 days; for pest or weed control at 15.625 g/ha: 15.625 g ai/ha; for pest or weed control at 15.625 g/ha / pest or weed control at 250 g/ha: read-out: Foxtail, Giant damage rating (100=total damage to plant; 0=no damage to plant); for pest or weed control at 62.5 g/ha: 62.5 g ai/ha, 100=total damage to plant, 0=no damage to plant, read-out: Foxtail, Giant damage rating; for pest or weed control at 250 g/ha: 250 g ai/ha
# How it was run: as §1
# [4] = tested on: ivy-leaved morning glory (Ipomoea hederacea); assay: Test G Pre-Emergence Protocol; settings: evaluated after 13 days; for pest or weed control at 15.625 g/ha: 15.625 g ai/ha; for pest or weed control at 15.625 g/ha / pest or weed control at 250 g/ha: read-out: Morningglory, Ivy-leaved damage rating (100=total damage to plant; 0=no damage to plant); for pest or weed control at 250 g/ha: 250 g ai/ha
# How it was run: as §1
# [5] = tested on: redroot pigweed (Amaranthus retroflexus); assay: Test G Pre-Emergence Protocol; settings: evaluated after 13 days; for pest or weed control at 15.625 g/ha: 15.625 g ai/ha; for pest or weed control at 62.5 g/ha: 62.5 g ai/ha, 100=total damage to plant, 0=no damage to plant, read-out: Pigweed, Redroot damage rating
# How it was run: as §1
# [6] = tested on: velvetleaf (Abutilon theophrasti); assay: Test G Pre-Emergence Protocol; settings: evaluated after 13 days; for pest or weed control at 62.5 g/ha: 62.5 g ai/ha, 100=total damage to plant, 0=no damage to plant, read-out: Velvetleaf damage rating; for pest or weed control at 250 g/ha: 250 g ai/ha
# How it was run: as §1
# [7] = tested on: barnyardgrass (Echinochloa crus-galli); assay: Test G Post-Emergence Protocol; settings: Echinochloa crus-galli, post-emergence, 312 h, read-out: Barnyardgrass damage rating; for pest or weed control at 15.625 g/ha: 15.625 g ai/ha, evaluated after 13 days (100=total damage to plant; 0=no damage to plant); for pest or weed control at 62.5 g/ha: 62.5 g ai/ha; for pest or weed control at 62.5 g/ha / pest or weed control at 250 g/ha: evaluated after 13 days, 100=total damage to plant, 0=no damage to plant; for pest or weed control at 250 g/ha: 250 g ai/ha
# How it was run: (§2)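 Values are percent visual injury at 13 days after treatment (0 none, 100 total). Treatment was a post-emergence spray at 15.625, 62.5 or 250 g/ha on 8-day-old pot plants kept at 24/16 °C.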
# corn (Zea mays) [8] = assay: Test G Post-Emergence Protocol; settings: Zea mays, post-emergence, 312 h, read-out: Corn damage rating; for plant injury at 15.625 g/ha: 15.625 g ai/ha, evaluated after 13 days (100=total damage to plant; 0=no damage to plant); for plant injury at 62.5 g/ha: 62.5 g ai/ha; for plant injury at 62.5 g/ha / plant injury at 250 g/ha: evaluated after 13 days, 100=total damage to plant, 0=no damage to plant; for plant injury at 250 g/ha: 250 g ai/ha
# How it was run: as §2
# [9] = tested on: giant foxtail (Setaria faberi); assay: Test G Post-Emergence Protocol; settings: Setaria faberi, post-emergence, 312 h, read-out: Foxtail, Giant damage rating; for pest or weed control at 15.625 g/ha: 15.625 g ai/ha, evaluated after 13 days (100=total damage to plant; 0=no damage to plant); for pest or weed control at 62.5 g/ha: 62.5 g ai/ha; for pest or weed control at 62.5 g/ha / pest or weed control at 250 g/ha: evaluated after 13 days, 100=total damage to plant, 0=no damage to plant; for pest or weed control at 250 g/ha: 250 g ai/ha
# How it was run: as §2
# [10] = tested on: ivy-leaved morning glory (Ipomoea hederacea); assay: Test G Post-Emergence Protocol; settings: for pest or weed control at 62.5 g/ha: 62.5 g ai/ha; for pest or weed control at 62.5 g/ha / pest or weed control at 250 g/ha: evaluated after 13 days, 100=total damage to plant, 0=no damage to plant; for pest or weed control at 250 g/ha: 250 g ai/ha
# How it was run: as §2
# [11] = tested on: redroot pigweed (Amaranthus retroflexus); assay: Test G Post-Emergence Protocol; settings: Amaranthus retroflexus, post-emergence, 312 h, read-out: Pigweed, Redroot damage rating; for pest or weed control at 15.625 g/ha: 15.625 g ai/ha, evaluated after 13 days (100=total damage to plant; 0=no damage to plant); for pest or weed control at 62.5 g/ha: 62.5 g ai/ha; for pest or weed control at 62.5 g/ha / pest or weed control at 250 g/ha: evaluated after 13 days, 100=total damage to plant, 0=no damage to plant; for pest or weed control at 250 g/ha: 250 g ai/ha
# How it was run: as §2
# [12] = tested on: velvetleaf (Abutilon theophrasti); assay: Test G Post-Emergence Protocol; settings: for pest or weed control at 15.625 g/ha: 15.625 g ai/ha, evaluated after 13 days (100=total damage to plant; 0=no damage to plant); for pest or weed control at 250 g/ha: 250 g ai/ha
# How it was run: as §2
# [13] = Zea mays, pre-emergence, 312 h, read-out: Corn damage rating (100=total damage to plant; 0=no damage to plant)
# [14] = Amaranthus retroflexus, pre-emergence, 312 h, read-out: Pigweed, Redroot damage rating (100=total damage to plant; 0=no damage to plant)
# [15] = Amaranthus retroflexus, pre-emergence, 312 h
# [16] = Abutilon theophrasti, pre-emergence, 312 h
# [17] = Abutilon theophrasti, pre-emergence, 312 h, read-out: Velvetleaf damage rating (100=total damage to plant; 0=no damage to plant)
# [18] = Ipomoea, post-emergence, 312 h, read-out: Morningglory, Ivy-leaved damage rating
# [19] = Abutilon theophrasti, post-emergence, 312 h, read-out: Velvetleaf damage rating
# [20] = Abutilon theophrasti, post-emergence, 312 h, evaluated after 13 days, 100=total damage to plant, 0=no damage to plant, read-out: Velvetleaf damage rating
SMILES,pest or weed control at 15.625 g/ha [1],pest or weed control at 62.5 g/ha [1],pest or weed control at 250 g/ha [1],"plant injury at 62.5 g/ha (corn (Zea mays) [2]; Zea mays, pre-emergence, 312 h)",plant injury at 250 g/ha (corn (Zea mays) [2]; [13]),pest or weed control at 15.625 g/ha [3],pest or weed control at 62.5 g/ha [3],pest or weed control at 250 g/ha [3],"pest or weed control at 15.625 g/ha ([4]; Ipomoea, pre-emergence, 312 h)","pest or weed control at 250 g/ha ([4]; Ipomoea, pre-emergence, 312 h)","pest or weed control at 15.625 g/ha [5, 14]","pest or weed control at 62.5 g/ha [5, 15]","pest or weed control at 62.5 g/ha [6, 16]","pest or weed control at 250 g/ha [6, 17]",pest or weed control at 15.625 g/ha [7],pest or weed control at 62.5 g/ha [7],pest or weed control at 250 g/ha [7],plant injury at 15.625 g/ha (corn (Zea mays) [8]),plant injury at 62.5 g/ha (corn (Zea mays) [8]),plant injury at 250 g/ha (corn (Zea mays) [8]),also measured
CC(C)S(=O)(=O)c1ccccc1NC(=O)[C@H]1C(=O)N(C)C[C@@H]1c1ccc(C(F)(F)F)cc1 (racemic) [Compound 1665],0%,0%,20%,0%,0%,0%,0%,80%,0%,20%,0%,0%,0%,0%,0%,0%,40%,0%,0%,0%,"plant injury at 15.625 g/ha (corn (Zea mays) [2]; Zea mays, pre-emergence, 312 h, 15.625 g ai/ha, read-out: Corn damage rating (100=total damage to plant; 0=no damage to plant)): 0%; pest or weed control at 62.5 g/ha ([4]; Ipomoea, pre-emergence, 312 h, 62.5 g ai/ha, 100=total damage to plant, 0=no damage to plant, read-out: Morningglory, Ivy-leaved damage rating): 0%; pest or weed control at 250 g/ha ([5]; Amaranthus retroflexus, pre-emergence, 312 h, 250 g ai/ha, read-out: Pigweed, Redroot damage rating (100=total damage to plant; 0=no damage to plant)): 20%; pest or weed control at 15.625 g/ha ([6]; Abutilon theophrasti, pre-emergence, 312 h, 15.625 g ai/ha, read-out: Velvetleaf damage rating (100=total damage to plant; 0=no damage to plant)): 0%; pest or weed control at 15.625 g/ha [9]: 0%; pest or weed control at 62.5 g/ha [9]: 0%; pest or weed control at 250 g/ha [9]: 60%; pest or weed control at 15.625 g/ha ([10]; Ipomoea, post-emergence, 312 h, 15.625 g ai/ha, evaluated after 13 days (100=total damage to plant; 0=no damage to plant), read-out: Morningglory, Ivy-leaved damage rating): 0%; pest or weed control at 62.5 g/ha [10, 18]: 0%; pest or weed control at 250 g/ha [10, 18]: 0%; pest or weed control at 15.625 g/ha [11]: 0%; pest or weed control at 62.5 g/ha [11]: 0%; pest or weed control at 250 g/ha [11]: 40%; pest or weed control at 15.625 g/ha [12, 19]: 0%; pest or weed control at 62.5 g/ha ([12]; Abutilon theophrasti, post-emergence, 312 h, 62.5 g ai/ha, evaluated after 13 days, 100=total damage to plant, 0=no damage to plant, read-out: Velvetleaf damage rating): 0%; pest or weed control at 250 g/ha [12, 20]: 0%"
CN1C[C@H](c2cccc(C(F)(F)F)c2)[C@@H](C(=O)Nc2cccc(F)n2)C1=O (racemic) [Compound 1671],70%,90%,90%,80%,80%,80%,90%,90%,10%,70%,0%,30%,30%,60%,70%,70%,80%,60%,70%,80%,"Corn damage rating (100=total damage to plant; 0=no damage to plant) (corn (Zea mays) [2]; 15.625 g ai/ha): 30; Morningglory, Ivy-leaved damage rating ([4]; 62.5 g ai/ha, 100=total damage to plant, 0=no damage to plant): 20; Pigweed, Redroot damage rating (100=total damage to plant; 0=no damage to plant) ([5]; 250 g ai/ha): 50; Velvetleaf damage rating (100=total damage to plant; 0=no damage to plant) ([6]; 15.625 g ai/ha): 20; pest or weed control at 15.625 g/ha [9]: 70%; pest or weed control at 62.5 g/ha [9]: 80%; pest or weed control at 250 g/ha [9]: 80%; Morningglory, Ivy-leaved damage rating ([10]; 15.625 g ai/ha, evaluated after 13 days (100=total damage to plant; 0=no damage to plant)): 0; pest or weed control at 62.5 g/ha [10, 18]: 70%; pest or weed control at 250 g/ha [10, 18]: 50%; pest or weed control at 15.625 g/ha [11]: 10%; pest or weed control at 62.5 g/ha [11]: 30%; pest or weed control at 250 g/ha [11]: 50%; Velvetleaf damage rating ([12]; 62.5 g ai/ha, evaluated after 13 days, 100=total damage to plant, 0=no damage to plant): 10; pest or weed control at 15.625 g/ha [12, 19]: 0%; pest or weed control at 250 g/ha [12, 20]: 40%"

# From patent US12077503B2, “Substituted cyclic amides and their use as herbicides” (FMC CORPORATION, priority 2015, dated 2024)
